Experimental data: patent US9145424B2, “Treatment of amyotrophic lateral sclerosis” (Northwestern University, priority 2008, dated 2015)
Read-outs that look alike come from different tables or passages of the source.

System: PC12 cells that express mutant G93A SOD1
Assay: Mutant SOD1-induced cytotoxicity protection assay
Conditions: for Corresponding % viability: rat, 48 h
Protocol: This idea was tested by examining the sensitivity of PC12 cells to SOD1 aggregates in the presence and absence of proteasome inhibitor MG132. PC12 cells expressing no SOD1, wild type SOD1, G85R SOD1 or G93A SOD1 were grown with or without MG132 (FIG. 1).
PC12 cells expressing G93A SOD1 were treated with 100 nM MG132 with or without co-treatment with geldanamycin or radicicol.

[1] = read-out: Best EC50, PC12 G93A SOD1 cells, MG132, calcein-AM viability
[2] = read-out: EC50 after Normalization, normalised with the corresponding 3299 EC50
[3] = Rattus norvegicus, PC-12, read-out: Best EC50, PC12 G93A SOD1 cells, MG132, calcein-AM viability
[4] = Rattus norvegicus, PC-12, read-out: EC50 after Normalization, normalised with the corresponding 3299 EC50

Molecule `O=c1cc(COc2ccc(Cl)cc2)[nH][nH]1` [CMB-086902-2] has a Corresponding % viability of 117%, an EC50 [1] of 0.69 µM and an EC50 [2] of 0.79 µM.

`CC(C)(C)c1ccc(SCc2cc(=O)[nH][nH]2)cc1` [CMB-053527-1] was tested, and the EC50 [3] was 5.38 µM, the EC50 [4] was 2.31 µM and the Corresponding % viability was 150%.

`O=c1cc(COc2cccc(Br)c2)[nH][nH]1` [CMB-087642-1] was tested, and the EC50 [3] was 3.06 µM, the EC50 [4] was 1.02 µM and the Corresponding % viability was 144%.

With `O=c1cc(CSc2ccc([N+](=O)[O-])cc2)[nH][nH]1` [CMB-053528-1] the EC50 [3] was 5.59 µM, the EC50 [4] was 2.4 µM and the Corresponding % viability was 136%.

With `O=c1cc(CSc2ccc(Cl)cc2Cl)[nH][nH]1` [CMB-053545-1] the EC50 [3] was 1.58 µM, the EC50 [4] was 1.15 µM and the Corresponding % viability was 124%.

In the case of `O=c1cc(CSc2ccc(Cl)c(Cl)c2)[nH][nH]1` [CMB-053544-1], the EC50 [3] is reported as 2.6 µM, the EC50 [4] is reported as 1.89 µM and the Corresponding % viability is reported as 113%.

With `O=c1cc(CSc2cc(Cl)cc(Cl)c2)[nH][nH]1` [CMB-086835-1] the EC50 [4] was 0.17 µM, the Corresponding % viability was 134% and the EC50 [1] was 0.08 µM.

In the case of `CN(Cc1cc(=O)n(C)n1C)c1cc(Cl)cc(Cl)c1` [Compound 33, 5-(((3,5-Dichlorophenyl)(methyl)amino)methyl)-1,2-dimethyl-1H-pyrazol-3(2H)-one], the “activity in the cytotoxicity protection assay, in words” value (“activity” for short) is reported as “devoid of activity”.

For `O=c1cc(CSc2c(Cl)cccc2Cl)[nH][nH]1` [CMB-086480-1], the EC50 [3] was 0.26 µM, the EC50 [4] was 0.95 µM and the Corresponding % viability was 142%.

For `Cc1cc(SCc2cc(=O)[nH][nH]2)c(C)cc1Cl` [CMB-086481-1], the EC50 [4] was 0.39 µM, the Corresponding % viability was 140% and the EC50 [1] was 0.43 µM.

Molecule `O=c1cc(CSCCOc2ccccc2)[nH][nH]1` [CMB-086900-1] has an EC50 [3] of 6.21 µM, an EC50 [4] of 7.52 µM and a Corresponding % viability of 97%.

With `Cc1c(CN(C)c2cc(Cl)cc(Cl)c2)n(C)n(C)c1=O` [Compound 32, 5-(((3,5-Dichlorophenyl)(methyl)amino)methyl)-1,2,4-trimethyl-1H-pyrazol-3(2H)-one] the “activity” value was “devoid of activity”.

`O=c1cc(CSc2ccccc2)[nH][nH]1` [CMB-053526-1] showed an EC50 [3] of 6.85 µM and a Corresponding % viability of 77%.

For `O=c1cc(COc2ccc(Cl)c(Cl)c2)[nH][nH]1` [CMB-087242-1], the EC50 [3] was 0.13 µM, the EC50 [4] was 0.58 µM and the Corresponding % viability was 136%.

With `O=c1cc(CSc2ccc(F)cc2)[nH][nH]1` [CMB-086478-1] the EC50 [3] was 4.73 µM, the EC50 [4] was 3.44 µM and the Corresponding % viability was 104%.

With `O=c1cc(CSc2ccc(Br)cc2)[nH][nH]1` [CMB-053543-1] the EC50 [3] was 4.24 µM, the EC50 [4] was 1.8 µM and the Corresponding % viability was 94%.

`O=c1cc(CNc2cc(Cl)cc(Cl)c2)[nH][nH]1` [CMB-087650-1] gave an EC50 [3] of 2.11 µM, an EC50 [4] of 0.33 µM and a Corresponding % viability of 128%.

With `O=c1cc(COc2cc(F)cc(F)c2)[nH][nH]1` [CMB-087627-1] the EC50 [3] was 3.21 µM, the EC50 [4] was 1.07 µM and the Corresponding % viability was 125%.

`O=c1cc(CN(c2cc(Cl)cc(Cl)c2)S(=O)(=O)c2ccccc2)[nH][nH]1` [CMB-087645-1] showed an EC50 [3] of 9.04 µM, an EC50 [4] of 1.43 µM and a Corresponding % viability of 111%.

Molecule `CC(C)c1ccc(S(=O)(=O)Cc2cc(=O)[nH][nH]2)cc1` [CMB-087211-1] has an EC50 [3] of 0.75 µM, an EC50 [4] of 0.68 µM and a Corresponding % viability of 103%.

`CCc1ccc(S(=O)(=O)Cc2cc(=O)[nH][nH]2)cc1` [CMB-087210-1] showed an EC50 [3] of 0.99 µM, an EC50 [4] of 0.9 µM and a Corresponding % viability of 101%.

With `Cc1ccc(C)c(SCc2cc(=O)[nH][nH]2)c1` [CMB-086479-1] the EC50 [3] was 0.22 µM and the Corresponding % viability was 77%.

Molecule `O=C1NN=C(CSc2ccccc2)C1=Cc1ccccc1` [CMB-053530-1] has an EC50 [3] of over 32 µM.

`O=c1cc(CSc2ccc(Cl)cc2)[nH]n1-c1ccccc1` [CMB-086473-1] showed an EC50 [3] of 5.11 µM, an EC50 [4] of 3.46 µM and a Corresponding % viability of 109%.

Work on `CCCCc1ccc(S(=O)(=O)Cc2cc(=O)[nH][nH]2)cc1` [CMB-087212-1] yielded an EC50 [3] of 0.99 µM, an EC50 [4] of 0.9 µM and a Corresponding % viability of 93%.

With `O=c1cc(COc2ccc(Cl)cc2)[nH][nH]1` [CMB-086902-3] the Corresponding % viability was 120%, the EC50 [1] was 3.43 µM and the EC50 [2] was 0.77 µM.

In the case of `CN(Cc1cc(=O)[nH]n1C)c1cc(Cl)cc(Cl)c1` [Compound 31, 5-(((3,5-Dichlorophenyl)(methyl)amino)methyl)-1-methyl-1H-pyrazol-3(2H)-one], the “activity” value is reported as “devoid of activity”.

`O=c1cc(CSc2ccccc2Cl)[nH][nH]1` [CMB-086834-1] was tested, and the EC50 [3] was 0.84 µM, the EC50 [4] was 3.05 µM and the Corresponding % viability was 123%.

`CN(C)c1ccc(SCc2cc(=O)[nH][nH]2)cc1` [CMB-086476-1] was tested, and the EC50 [3] was 1.65 µM and the Corresponding % viability was 77%.
